One molecule from patent publication US20180360953A1 (priority 2015, published 2018) can be followed below.

The experiment concerns PA-specific Ab responses. On the set-up: species or system mice. The conditions noted are these: mouse, in vivo, ip.

Turning to `Cc1c(-c2ccnn2C)cc(C(=O)NCc2ccc(S(C)(=O)=O)cn2)c(=O)n1-c1cccc(C(F)(F)F)c1` [Alvelestat, alvelestat], the “High affinity PA-specific serum IgG1 and IgA Ab responses” value is reported as “promotes high affinity Abs”.
